Legend:
[1] = test system: huCART19 cells co-cultured with Nalm-6; assay: huCART19 proliferation in 4 day co-culture with Nalm-6 in presence of RAD001; type: cell-based, human
Text: A humanized, anti-human CD19 CAR (huCART19) lentiviral transfer vector was used to produce the genomic material packaged into VSVg pseudotyped lentiviral particles. The amino acid and nucleotide sequence of the humanized anti-human CD19 CAR (huCART19) is CAR 1, ID 104875 described in PCT publication, WO2014/153270, filed Mar. 15, 2014, and is designated SEQ ID NOs. 85 and 31 therein.
Lentiviral transfer vector DNA is mixed with the three packaging components VSVg env, gag/pol and rev in combination with lipofectamine reagent to transfect Lenti-X 293T cells. Medium is changed after 24h and 30h thereafter, the virus-containing media is collected, filtered and stored at −80° C. CARTs are generated by transduction of fresh or frozen naïve T cells obtained by negative magnetic selection of healthy donor blood or leukopak. […] The percentage of cells transduced (expressing the CARs on the cell surface) and the level of CAR expression (relative fluorescence intensity, Geo Mean) are determined by flow cytometric analysis between days 7 and 9. […]
To evaluate the functionality of CARTs, the T cells are thawed and counted, and viability is assessed by Cellometer. […]
For measuring the proliferation of CARTs, T cells are cultured with target cells at a ratio of 1:1. […] The number of T cells is assessed by flow cytometry using counting beads as reference.

huCAR19 CAR T cells = assay: huCAR19 CAR T cell expansion in vivo with RAD001 (FACS); set-up: species or system NSG mice; conditions: lowest doses of RAD001, daily oral; more evident with CD4+ than CD8+ CAR T cells
Experimental: CAR T cell dosing: Mice were administered 5×10^6 CAR T cells 7 days after tumor implantation. Cells were partially thawed in a 37 degree Celsius water bath and then completely thawed by the addition of 1 ml of cold sterile PBS to the tube containing the cells. The thawed cells were transferred to a 15 ml falcon tube and adjusted to a final volume of 10 mls with PBS. The cells were washed twice at 1000 rpm for 10 minutes each time and then counted on a hemocytometer. T cells were then resuspended at a concentration of 50×10^6 CAR T cells per ml of cold PBS and kept on ice until the mice were dosed. The mice were injected intravenously via the tail vein with 100 μl of the CAR T cells for a dose of 5×10^6 CAR T cells per mouse. Eight mice per group were treated either with 100 μl of PBS alone (PBS), or humanized CD19 CAR T cells.
(§1) RAD001 dosing: A concentrated micro-emulsion of 50 mg equal to 1 mg RAD001 was formulated and then resuspended in D5W (dextrose 5% in water) at the time of dosing. Mice were orally dosed daily (via oral gavage) with 200 μl of the desired doses of RAD001.
Based on these doses, huCAR19 CAR T cells were dosed with and without RAD001 to determine the proliferative ability of these cells. The highest dose used was 3 mg/kg based on the levels of RAD001 in the blood 24 hours after dosing. […] Mice were monitored via FACS for T cell expansion.

[2] = RAD001 PK analysis in blood of NALM6-luc tumor bearing mice; type: in vivo, NSG mice
Experimental: as §1
PK analysis: Mice were dosed daily with RAD001 starting 7 days post tumor implantation. Dosing groups were as follows: 0.3 mg/kg, 1 mg/kg, 3 mg/kg, and 10 mg/kg. Mice were bled on days 0 and 14 following the first and last dose of RAD001, at the following time points for PK analysis: 15 minutes, 30 minutes, 1 hour, 2 hours, 4 hours, 8 hours, 12 hours, and 24 hours.

[3] = test system: CAR-expressing, transduced T cells; assay: Proliferation of CARTs co-cultured with Nalm-6 cells in presence of RAD001; type: cell-based; conditions: low doses of RAD001, 4 days of co-culture with Nalm-6 cells
Experimental: CARTs were co-cultured with Nalm-6 cells in the presence of different concentrations of RAD001. The number of CAR-positive CD3-positive T cells (black) and total T cells (gray) was assessed after 4 days of co-culture.

NALM6-luc tumors = assay: NALM6-luc tumor growth under daily oral RAD001; type: in vivo, NSG mice; conditions: daily oral dosing of RAD001 alone
Experimental: NALM6-luc cells: The NALM6 human acute lymphoblastic leukemia (ALL) cell line was developed from the peripheral blood of a patient with relapsed ALL. The cells were then tagged with firefly luciferase. These suspension cells grow in RPMI supplemented with 10% heat inactivated fetal bovine serum.
Mice: 6 week old NSG (NOD.Cg-Prkdc^scidIl2rg^tm1Wjl/SzJ) mice were received from the Jackson Laboratory (stock number 005557).
Tumor implantation: NALM6-luc cells were grown and expanded in vitro in RPMI supplemented with 10% heat inactivated fetal bovine serum. The cells were then transferred to a 15 ml conical tube and washed twice with cold sterile PBS. NALM6-luc cells were then counted and resuspended at a concentration of 10×10^6 cells per milliliter of PBS. The cells were placed on ice and immediately (within one hour) implanted in the mice. NALM6-luc cells were injected intravenously via the tail vein in a 100 µl volume, for a total of 1×10^6 cells per mouse.
as §1

[4] = test system: humanized CD19 CART cells; assay: In vivo proliferation of humanized CD19 CART cells with and without RAD001 dosing; conditions: RAD001 0.003 mg/kg daily, with huCAR19
Experimental: FIGS. 46A and 46B show in vivo proliferation of humanized CD19 CART cells with and without RAD001 dosing. […] Circles denote PBS; squares denote huCTL019; triangles denote huCTL019 with 3 mg/kg RAD001; inverted triangles denote huCTL019 with 0.3 mg/kg RAD001; diamonds denote huCTL019 with 0.03 mg/kg RAD001; and circles denote huCTL019 with 0.003 mg/kg RAD001.

concentration at 24 h ([2]; NSG, mouse, whole blood, 24 hours after dosing, 0.3 mg/kg oral daily, day 0 and day 14, read-out: RAD001 concentrations in the blood): > 10 nM
stability in the blood ([2]; tumor bearing mice, FIGS. 45A, 45B): fairly stable
SMILES: CO[C@H]1C[C@@H]2CC[C@@H](C)[C@@](O)(O2)C(=O)C(=O)N2CCCC[C@H]2C(=O)O[C@H]([C@H](C)C[C@@H]2CC[C@@H](OCCO)[C@H](OC)C2)CC(=O)[C@H](C)/C=C(\C)[C@@H](O)[C@@H](OC)C(=O)[C@H](C)C[C@H](C)/C=C/C=C/C=C/1C [RAD001, (1R,9S,12S,15R,16E,18R,19R,21R,23 S,24E,26E,28E,30S,32S,35R)-1,18-dihydroxy-12-{(1R)-2-[(1S,3R,4R)-4-(2-hydroxyethoxy)-3-methoxycyclohexyl]-1-methylethyl}-19,30-dimethoxy-15,17,21,23,29,35-hexamethyl-11,36-dioxa-4-aza-tricyclo[30.3.1.04,9]hexatriaconta-16,24,26,28-tetraene-2,3,10,14,20-pentaone]
huCART19 proliferation versus no RAD001 ([1]; 0.0032 and 0.016 nM RAD001): higher than observed without the addition of RAD001
RAD001 concentration at which huCART19 cells expanded ([1]; 4 day co-culture with Nalm-6, 1:1, lesser extent at higher concentrations): less than 0.016 nM
proliferation of the CAR T cells in vivo (huCAR19 CAR T cells): enhanced proliferation
proliferation of CAR-expressing, transduced T cells [3]: enhanced
growth of NALM6-luc tumors (NALM6-luc tumors): did not have an impact
CAR T cell proliferation in vivo [4]: enhancement in CAR T cell proliferation

Source: patent US20220064316A1, “TREATMENT OF CANCER USING HUMANIZED ANTI-BCMA CHIMERIC ANTIGEN RECEPTOR” (The Trustees of the University of Pennsylvania, priority 2014, published 2022)
